Assay results: ChEMBL document CHEMBL6120985, “Discovery of a potent PARP1 PROTAC as a chemosensitizer for the treatment of colorectal cancer” (Eur J Med Chem, 2025)

Assays:
[1] = biological target: T1, Protein cereblon/Poly [ADP-ribose] polymerase 1 (Homo sapiens, UniProt P09874+Q96SW2); assay: PROTAC activity at CRBN/PARP1 in human HCT-116 cells assessed as degradation of PARP1; type: cell-based
Target sequence in this assay (P09874 whole entry): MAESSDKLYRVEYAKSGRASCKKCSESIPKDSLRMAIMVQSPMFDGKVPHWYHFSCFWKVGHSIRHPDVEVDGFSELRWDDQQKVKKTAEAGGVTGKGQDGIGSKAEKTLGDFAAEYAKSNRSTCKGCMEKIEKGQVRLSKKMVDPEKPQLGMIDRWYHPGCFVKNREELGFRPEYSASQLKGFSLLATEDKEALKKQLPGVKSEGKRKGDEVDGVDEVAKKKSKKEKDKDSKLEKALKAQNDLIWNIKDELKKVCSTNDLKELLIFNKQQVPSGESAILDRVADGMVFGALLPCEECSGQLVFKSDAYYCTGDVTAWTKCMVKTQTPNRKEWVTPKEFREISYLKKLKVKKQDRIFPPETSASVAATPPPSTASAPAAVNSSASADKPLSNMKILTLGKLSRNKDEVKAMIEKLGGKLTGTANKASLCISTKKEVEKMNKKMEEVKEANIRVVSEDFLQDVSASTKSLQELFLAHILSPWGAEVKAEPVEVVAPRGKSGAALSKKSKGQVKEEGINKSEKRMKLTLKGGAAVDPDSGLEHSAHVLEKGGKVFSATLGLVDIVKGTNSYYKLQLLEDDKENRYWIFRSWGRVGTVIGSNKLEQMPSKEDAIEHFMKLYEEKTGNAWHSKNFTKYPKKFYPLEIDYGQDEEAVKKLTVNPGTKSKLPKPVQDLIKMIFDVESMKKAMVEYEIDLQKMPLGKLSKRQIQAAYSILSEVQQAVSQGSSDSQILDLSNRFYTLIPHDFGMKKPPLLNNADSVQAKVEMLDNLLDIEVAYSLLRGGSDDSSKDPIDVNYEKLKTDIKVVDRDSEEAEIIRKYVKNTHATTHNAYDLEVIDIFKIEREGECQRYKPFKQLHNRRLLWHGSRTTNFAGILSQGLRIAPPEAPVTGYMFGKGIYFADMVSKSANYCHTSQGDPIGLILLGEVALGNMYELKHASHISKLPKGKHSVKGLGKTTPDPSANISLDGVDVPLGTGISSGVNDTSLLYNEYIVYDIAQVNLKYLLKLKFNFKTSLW
Target sequence in this assay (Q96SW2 whole entry): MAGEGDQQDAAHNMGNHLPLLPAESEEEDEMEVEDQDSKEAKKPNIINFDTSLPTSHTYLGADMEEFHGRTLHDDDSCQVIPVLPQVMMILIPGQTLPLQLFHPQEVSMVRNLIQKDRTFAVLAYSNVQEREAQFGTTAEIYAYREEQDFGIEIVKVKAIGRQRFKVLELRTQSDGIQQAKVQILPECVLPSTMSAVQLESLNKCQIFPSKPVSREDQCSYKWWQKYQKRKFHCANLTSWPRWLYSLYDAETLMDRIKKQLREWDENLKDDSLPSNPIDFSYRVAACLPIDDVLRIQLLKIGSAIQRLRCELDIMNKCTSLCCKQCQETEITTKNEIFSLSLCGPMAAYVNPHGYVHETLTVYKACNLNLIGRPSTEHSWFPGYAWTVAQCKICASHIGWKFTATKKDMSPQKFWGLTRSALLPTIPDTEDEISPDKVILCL

[2] = biological target: T1, Protein cereblon/Poly [ADP-ribose] polymerase 1; assay: PROTAC activity at CRBN/PARP1 in human HCT-116 cells assessed as maximum degradation of PARP1 relative to control; type: cell-based
Target sequence in this assay (P09874 2-1014 limits assumed): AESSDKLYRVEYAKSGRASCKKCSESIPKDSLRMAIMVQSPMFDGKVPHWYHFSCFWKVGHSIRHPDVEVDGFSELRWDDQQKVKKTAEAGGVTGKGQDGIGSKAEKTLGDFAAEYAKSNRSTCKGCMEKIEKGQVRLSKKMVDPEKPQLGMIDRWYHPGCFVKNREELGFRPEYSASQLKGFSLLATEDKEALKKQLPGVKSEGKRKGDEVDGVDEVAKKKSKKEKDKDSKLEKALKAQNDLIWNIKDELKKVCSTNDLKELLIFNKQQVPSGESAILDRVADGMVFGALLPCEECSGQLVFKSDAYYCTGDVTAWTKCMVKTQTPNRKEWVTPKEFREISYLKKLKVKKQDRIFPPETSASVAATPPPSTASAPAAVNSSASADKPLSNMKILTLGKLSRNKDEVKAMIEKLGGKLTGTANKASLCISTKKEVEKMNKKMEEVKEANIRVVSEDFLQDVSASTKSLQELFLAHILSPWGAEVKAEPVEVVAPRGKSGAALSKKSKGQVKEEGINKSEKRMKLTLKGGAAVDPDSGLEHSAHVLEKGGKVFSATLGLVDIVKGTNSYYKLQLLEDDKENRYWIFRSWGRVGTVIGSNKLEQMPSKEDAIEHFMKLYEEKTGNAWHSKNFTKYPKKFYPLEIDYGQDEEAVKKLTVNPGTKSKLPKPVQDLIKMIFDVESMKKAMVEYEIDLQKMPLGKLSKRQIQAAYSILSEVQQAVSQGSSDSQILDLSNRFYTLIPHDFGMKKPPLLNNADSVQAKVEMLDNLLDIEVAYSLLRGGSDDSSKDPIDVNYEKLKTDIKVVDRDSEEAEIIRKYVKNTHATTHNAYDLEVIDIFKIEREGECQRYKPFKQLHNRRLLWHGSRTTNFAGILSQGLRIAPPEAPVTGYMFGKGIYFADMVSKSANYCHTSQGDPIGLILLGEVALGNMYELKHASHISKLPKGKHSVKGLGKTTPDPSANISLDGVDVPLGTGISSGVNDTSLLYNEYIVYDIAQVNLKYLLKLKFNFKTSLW
Target sequence in this assay (Q96SW2 whole entry partner): as the sequence (Q96SW2 whole entry) above

SW-620 = assay: Cytotoxicity against human SW620 cells assessed as inhibition of cell growth measured after 72 hrs by CCK-8 method; type: functional, cell-based; conditions: SW-620, 72 h
[3] = Cytotoxicity against HEK293T cells assessed as inhibition of cell growth measured after 72 hrs by CCK-8 method; type: toxicity, cell-based, HEK-293T; conditions: human
[4] = Cytotoxicity against human BEAS-2B cells assessed as inhibition of cell growth measured after 72 hrs by CCK-8 method; type: toxicity, cell-based
LoVo = assay: Cytotoxicity against human LoVo cells assessed as inhibition of cell growth measured after 72 hrs by CCK-8 method; type: functional, cell-based
HCT-116 [5] = assay: Induction of apoptosis in human HCT-116 cells assessed as necrotic cells at 2.5 nM measured after 72 hrs by annexin V/FITC and PI staining based flow cytometry analysis (reference value: 0.16%); type: functional
HCT-116 [6] = assay: Cytotoxicity against human HCT-116 cells assessed as inhibition of cell growth measured after 72 hrs by CCK-8 method; type: functional, cell-based; conditions: HCT-116, 72 h
HCT-116 [7] = assay: Induction of apoptosis in human HCT-116 cells assessed as late apoptotic cells at 2.5 nM measured after 72 hrs by annexin V/FITC and PI staining based flow cytometry analysis (reference value: 6.80%); type: functional
HCT-116 [8] = assay: Induction of apoptosis in human HCT-116 cells assessed as early apoptotic cells at 2.5 nM measured after 72 hrs by annexin V/FITC and PI staining based flow cytometry analysis (reference value: 3.43%); type: functional
HCT-116 [9] = assay: Induction of apoptosis in human HCT-116 cells assessed as viable cells at 2.5 nM measured after 72 hrs by annexin V/FITC and PI staining based flow cytometry analysis (reference value: 89.6%); type: functional; conditions: read-out: Activity

Row | Structure (SMILES) | DC50 [1] | Emax [2] | also measured
1 | NC(=O)c1cccc2cn(-c3ccc([C@@H]4CCCN(C(=O)CCCCCCNc5ccc6c(c5)C(=O)N(C5CCC(=O)NC5=O)C6=O)C4)cc3)nc12 (some centres undefined) | > 20 µM | 37.3% | –
2 | O=C(CCCCCCCCCCC(=O)N1CCN(C(=O)c2cc(Cc3n[nH]c(=O)c4ccccc34)ccc2F)CC1)NCCNc1cccc2c1C(=O)N(C1CCC(=O)NC1=O)C2=O (centres undefined) | – | – | IC50 (SW-620): > 10000 nM; IC50 at 72 h [3]: 1860 nM; IC50 at 72 h [4]: 3.7 µM; IC50 (LoVo): > 10000 nM
3 | NC(=O)c1cccc2cn(-c3ccc([C@@H]4CCCN(C(=O)CC5CCN(C(=O)CC6CCN(CC7CCN(c8ccc9c(c8)C(=O)N(C8CCC(=O)NC8=O)C9=O)C7)CC6)CC5)C4)cc3)nc12 (some centres undefined) | 20.1 µM | 49.8% | –
4 | NC(=O)c1cccc2cn(-c3ccc([C@@H]4CCCN(C(=O)CC5CCN(CCC6CCN(CC7CN(c8ccc9c(c8)C(=O)N(C8CCC(=O)NC8=O)C9=O)C7)CC6)CC5)C4)cc3)nc12 (some centres undefined) | 0.5 µM | 83.6% | –
5 | NC(=O)c1cccc2cn(-c3ccc([C@@H]4CCCN(C(=O)CC5CCN(CCC6CCN(c7ccc8c(c7)C(=O)N(C7CCC(=O)NC7=O)C8=O)CC6)CC5)C4)cc3)nc12 (some centres undefined) | > 20 µM | 30.1% | –
6 | NC(=O)c1cccc2cn(-c3ccc([C@@H]4CCCN(C(=O)CCCCCCCCNc5ccc6c(c5)C(=O)N(C5CCC(=O)NC5=O)C6=O)C4)cc3)nc12 (some centres undefined) | 2.21 µM | 58.8% | –
7 | CCc1c2c(nc3ccc(O)cc13)-c1cc3c(c(=O)n1C2)COC(=O)[C@]3(O)CC [7-ETHYL-10-HYDROXYCAMPTOTHECIN] | – | – | Activity (HCT-116 [5]): 0.77%; IC50 (HCT-116 [6]): 2.9 nM; Activity (HCT-116 [7]): 17.1%; Activity (HCT-116 [8]): 5.48%; viability at 0.0025 µM (HCT-116 [9]): 76.7%; IC50 (LoVo): 2.9 nM
8 | NC(=O)c1cccc2cn(-c3ccc([C@@H]4CCCN(C(=O)COCCOCCOCCOCCNc5ccc6c(c5)C(=O)N(C5CCC(=O)NC5=O)C6=O)C4)cc3)nc12 (some centres undefined) | 0.06 µM | 78.9% | –
9 | NC(=O)c1cccc2cn(-c3ccc([C@@H]4CCCN(C(=O)COCCOCCOCCNc5ccc6c(c5)C(=O)N(C5CCC(=O)NC5=O)C6=O)C4)cc3)nc12 (some centres undefined) | > 20 µM | 37.4% | –
10 | NC(=O)c1cccc2cn(-c3ccc([C@@H]4CCCN(C(=O)C5CCN(CC6CCN(c7ccc8c(c7)C(=O)N(C7CCC(=O)NC7=O)C8=O)C6)CC5)C4)cc3)nc12 (some centres undefined) | > 20 µM | 32.8% | –
11 | NC(=O)c1cccc2cn(-c3ccc([C@@H]4CCCNC4)cc3)nc12 [NIRAPARIB] | – | – | IC50 (SW-620): 490 nM
12 | NC(=O)c1cccc2cn(-c3ccc([C@@H]4CCCN(C(=O)CC5CCN(CCC6CCN(CC7CCN(c8ccc9c(c8)C(=O)N(C8CCC(=O)NC8=O)C9=O)C7)CC6)CC5)C4)cc3)nc12 (some centres undefined) | > 20 µM | 33.6% | –
13 | NC(=O)c1cccc2cn(-c3ccc([C@@H]4CCCN(CCC5CCN(CCC6CCN(CC7CN(c8ccc9c(c8)C(=O)N(C8CCC(=O)NC8=O)C9=O)C7)CC6)CC5)C4)cc3)nc12 (some centres undefined) | 0.03 µM | 71% | –
14 | NC(=O)c1cccc2cn(-c3ccc([C@@H]4CCCN(C(=O)CC5CCN(C(=O)CC6CCN(c7ccc8c(c7)C(=O)N(C7CCC(=O)NC7=O)C8=O)CC6)CC5)C4)cc3)nc12 (some centres undefined) | > 20 µM | – | –
15 | NC(=O)c1cccc2cn(-c3ccc([C@@H]4CCCN(C(=O)CC5CCN(CC6CCN(c7ccc8c(c7)C(=O)N(C7CCC(=O)NC7=O)C8=O)CC6)CC5)C4)cc3)nc12 (some centres undefined) | 15.6 µM | 59.4% | –
16 | NC(=O)c1cccc2cn(-c3ccc([C@@H]4CCCN(C(=O)CC5CCN(C(=O)CC6CCN(CC7CN(c8ccc9c(c8)C(=O)N(C8CCC(=O)NC8=O)C9=O)C7)CC6)CC5)C4)cc3)nc12 (some centres undefined) | 16.3 µM | 47.6% | –
17 | NC(=O)c1cccc2cn(-c3ccc([C@@H]4CCCN(C(=O)C5CCN(CC6CCN(c7ccc8c(c7)C(=O)N(C7CCC(=O)NC7=O)C8=O)CC6)CC5)C4)cc3)nc12 (some centres undefined) | > 20 µM | 30.2% | –
18 | NC(=O)c1cccc2cn(-c3ccc([C@@H]4CCCN(C(=O)CC5CCN(CCC6CCN(CC7CCN(c8ccc9c(c8)C(=O)N(C8CCC(=O)NC8=O)C9=O)CC7)CC6)CC5)C4)cc3)nc12 (some centres undefined) | 0.04 µM | 57.1% | –
19 | NC(=O)c1cccc2cn(-c3ccc([C@@H]4CCCN(C(=O)CC5CCN(CC6CCN(c7ccc8c(c7)C(=O)N(C7CCC(=O)NC7=O)C8=O)C6)CC5)C4)cc3)nc12 (some centres undefined) | > 20 µM | – | –
20 | NC(=O)c1cccc2cn(-c3ccc([C@@H]4CCCN(C(=O)CC5CCN(C(=O)C6CCN(c7ccc8c(c7)C(=O)N(C7CCC(=O)NC7=O)C8=O)CC6)CC5)C4)cc3)nc12 (some centres undefined) | > 20 µM | 35.6% | –
21 | NC(=O)c1cccc2cn(-c3ccc([C@@H]4CCCN(C(=O)C5CCN(CC6CN(c7ccc8c(c7)C(=O)N(C7CCC(=O)NC7=O)C8=O)C6)CC5)C4)cc3)nc12 (some centres undefined) | 19 µM | 53.9% | –
22 | NC(=O)c1cccc2cn(-c3ccc([C@@H]4CCCN(C(=O)CC5CCN(CC6CN(c7ccc8c(c7)C(=O)N(C7CCC(=O)NC7=O)C8=O)C6)CC5)C4)cc3)nc12 (some centres undefined) | > 20 µM | 31.8% | –
23 | NC(=O)c1cccc2cn(-c3ccc([C@@H]4CCCN(C(=O)CCCCNc5ccc6c(c5)C(=O)N(C5CCC(=O)NC5=O)C6=O)C4)cc3)nc12 (some centres undefined) | > 20 µM | 29.8% | –
24 | NC(=O)c1cccc2cn(-c3ccc([C@@H]4CCCN(C(=O)COCCOCCNc5ccc6c(c5)C(=O)N(C5CCC(=O)NC5=O)C6=O)C4)cc3)nc12 (some centres undefined) | > 20 µM | 49.1% | –
25 | NC(=O)c1cccc2cn(-c3ccc([C@@H]4CCCN(C(=O)CC5CCN(C(=O)CC6CCN(CC7CCN(c8ccc9c(c8)C(=O)N(C8CCC(=O)NC8=O)C9=O)CC7)CC6)CC5)C4)cc3)nc12 (some centres undefined) | 0.23 µM | 65.1% | –
26 | NC(=O)c1cccc2cn(-c3ccc([C@@H]4CCCN(C(=O)CC5CCN(C(=O)CC6CCN(C(=O)C7CCN(c8ccc9c(c8)C(=O)N(C8CCC(=O)NC8=O)C9=O)CC7)CC6)CC5)C4)cc3)nc12 (some centres undefined) | > 20 µM | 6.96% | –
27 | NC(=O)c1cccc2cn(-c3ccc([C@@H]4CCCN(C(=O)COCCOCCOCCOCCOCCNc5ccc6c(c5)C(=O)N(C5CCC(=O)NC5=O)C6=O)C4)cc3)nc12 (some centres undefined) | 19.1 µM | 47.7% | –
28 | NC(=O)c1cccc2cn(-c3ccc([C@@H]4CCCN(C(=O)C5CCN(C(=O)C6CCN(c7ccc8c(c7)C(=O)N(C7CCC(=O)NC7=O)C8=O)CC6)CC5)C4)cc3)nc12 (some centres undefined) | > 20 µM | 15.7% | –
